Reference: PubChem BioAssay (NCI)
Where “and” joins values, the source holds several entries; their conditions need not be identical. Identical values can stand only once.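 Briefly, cells in 96-well plates were exposed to five compound concentrations for 48 h, and endpoints were estimated by linear interpolation. Here, GI50 denotes the concentration required for 50% inhibition of growth. TGI: concentration producing complete growth inhibition.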

Test system: MDA-MB-468 breast
Assay: inhibition of tumour cell growth, NCI panel, 48 h

Row | SMILES | GI50 | TGI
1 | Cc1cc(NC(=O)c2cnc(N3CCN(CCOCCOCCOCCOCCC(=O)N[C@H](C(=O)N4C[C@H](O)C[C@H]4C(=O)N[C@@H](C)c4ccc(-c5scnc5C)cc4)C(C)(C)C)CC3)cn2)c2ncccc2c1 | 1.67 µM | 3.39 µM
2 | CC(=O)O.CC(=O)O.CC(=O)O.CC(=O)O.[Rh].[Rh] | 15 µM | 58.1 µM
3 | Cn1c2c(c3ccccc31)CCN1C(=O)C3SC21C1C(=O)N(c2ccccc2)C(=O)C31 (stereo unspecified) | 51.6 µM | > 100 µM
4 | C=CCn1c(=O)c2cnc(Nc3ccc(N4CCN(C)CC4)cc3)nc2n1-c1cccc(C(C)(C)O)n1 | 0.144 µM and 0.317 µM | 0.801 µM and 2.08 µM
5 | O=C1CCC(N2C(=O)c3cccc(NCCCC4CCN(CCNC(=O)c5cc6c(o5)C(=O)c5ccccc5C6=O)CC4)c3C2=O)C(=O)N1 (stereo unspecified) | 0.265 µM | 1.94 µM
6 | Cn1nnc2c(C(N)=O)ncn2c1=O | > 100 µM | > 100 µM
7 | O=c1c(O)cccn1CCCN(CCCn1cccc(O)c1=O)CCn1cccc(O)c1=O | 8.33 µM | 45.6 µM
8 | Cc1ccc(NC(=O)Nc2nc3ccc([N+](=O)[O-])cc3s2)cc1 | 1.71 µM | 5.8 µM
9 | CCN(CC)CCC(CNc1c(C)cnc2cc(Cl)ccc12)c1ccc(Cl)cc1 (stereo unspecified) | 2.05 µM | 5.45 µM
10 | Cc1oc2c(c1C(=O)N1CC[C@@H](N)C1)C(=O)c1c(c(O)c3ccccc3c1O)C2=O | 2.52 µM | 11.9 µM
11 | Nc1n[nH]c2ccc([C@@H]3Nc4cc5[nH]ncc5cc4[C@H]4C5CCC(C5)[C@@H]34)cc12 (stereo partly specified) | 0.211 µM | 0.873 µM
12 | Cc1cccc2c(Nc3ccc(NS(C)(=O)=O)cc3)c3ccc([N+](=O)[O-])cc3nc12 | 0.202 µM | 0.882 µM
13 | O=[N+]([O-])c1ccc2c(Nc3ccccc3-c3ccccc3Nc3c4ccccc4nc4cc([N+](=O)[O-])ccc34)c3ccccc3nc2c1 | 2.25 µM | 8.6 µM
14 | C=C1C(=O)O[C@H]2[C@H]1CC/C(CNC(=O)/C=C/c1ccccc1)=C\CC[C@@]1(C)O[C@@H]21 | 0.48 µM | 1.69 µM
15 | COC1=CC(=O)c2c(O)c3c(c(O)c2C1=O)C[C@](C)(O)C[C@@H]3O | 2.16 µM | 7.13 µM
16 | O=C1/C(=C/c2cccc(Br)c2)COc2ccc(O)c(O)c21 | 1.6 µM | 3.8 µM
17 | NNc1c2ccccc2nc2ccccc12 | 0.47 µM | 13 µM
18 | Oc1c(Cl)cc(Cl)c2cccnc12 | 2.1 µM | 5.53 µM
19 | C[C@@H]1COCCN1c1cc(-c2ccnn2C)c2ccnc(-c3ccn[nH]3)c2n1 | 0.164 µM and 0.324 µM | 0.854 µM and 3.08 µM
20 | Cc1ccc(Sc2oc(-c3ccc(C)cc3)nc2[P+](c2ccccc2)(c2ccccc2)c2ccccc2)cc1 | 0.227 µM | 0.705 µM
21 | NC(=O)c1cccc(-c2cc(C(N)=O)ccc2Cl)c1 | 4.61 µM | > 100 µM
22 | CC/C=C\C/C=C/C=C1/C(=O)C=C[C@@H]1C/C=C\CCCC(=O)OC | 1.79 µM | 3.83 µM
23 | Nc1ncccc1-c1nc2ccc(-c3ccccc3)nc2n1-c1ccc(C2(N)CCC2)cc1 | 0.117 µM | 1.99 µM

Row | SMILES | GI50 | TGI
24 | CCN(CC)CCCC(C)Nc1c(-c2ccccc2)cnc2cc(Cl)ccc12 (stereo unspecified) | 2.63 µM | 7.95 µM
25 | O=C(Nc1cnc(C(F)(F)F)cn1)c1cc(Cl)ccc1O | 0.282 µM | 0.819 µM
26 | CCOC(=O)C1=C(C)N2C(=NC3=C(CCC/C3=C\c3ccc(Cl)cc3)C2c2ccc(Cl)cc2)S1 (stereo unspecified) | 2.36 µM | 6.19 µM
27 | CCN(C(=O)CN1CCN(c2cc3c(cc2F)c(=O)c(C(=O)O)cn3CC)CC1)c1nc(-c2ccccc2)cs1 | 0.307 µM | 0.896 µM
28 | COc1cc(C2CC(=O)Nc3c2cc(Br)c2ccccc32)cc(Br)c1OC (stereo unspecified) | 0.529 µM | 2.54 µM
29 | CCN(CC)C(=S)SSC(=S)N(CC)CC | 15.8 µM and 16.8 µM | 43.7 µM and 44.8 µM
30 | C=C1CC[C@@H]2[C@](C)(COC(C)=O)[C@H](OC(C)=O)CC[C@@]2(C)[C@@H]1CC(Nc1ccc(S(=O)(=O)Nc2nccs2)cc1)C1=CCOC1=O (stereo partly specified) | 1.83 µM | 4.43 µM
31 | COc1cc(OC)cc(-c2n/c(=C\c3c(O)[nH]c4ccc(Cl)cc34)cc3c2=Nc2ccccc2-3)c1 | 17.9 µM | 45.6 µM
32 | C[C@H]1c2ccccc2CN1CCCOc1cc2c(cc1OCC1CC1)C1(CCCC1)C(N)=N2 | 0.813 µM | 1.83 µM
33 | COc1ccc(Oc2ccccc2NC(=O)CNC(=O)c2cccc3ccccc23)cc1 | 0.454 µM | > 25 µM
34 | Cc1c2ccncc2c(C)c2c1c1cc(CO)ccc1n2C | 0.105 µM | 0.327 µM
35 | COc1ccc2c(c1)/C(=C\c1c[nH]c3ccc(OC)cc13)C(=O)N2 | 1.78 µM | 5.66 µM
36 | COc1cc(/C=C/[N+](=O)[O-])cc(OC)c1OC | 1.32 µM | 2.87 µM
37 | NS(=O)(=O)c1cccc(-c2ccc3c(NC(=O)C4CC4)n[nH]c3c2)c1 | 5.25 µM | > 25 µM
38 | OCc1ccc(N2CCCC2)cc1Cl | 0.0757 µM | 0.324 µM
39 | COc1cccc(C2C(C#N)=C(N)Oc3c2ccc2ccccc32)c1 (stereo unspecified) | 0.0194 µM | 7.04 µM
40 | COc1cccc(CC(C)=C(c2ccc(OCCCN(C)C)cc2)c2ccc(OCCCN(C)C)cc2)c1 | 0.518 µM | 1.18 µM
41 | CCN1C(=O)N(CC)C2C1NN=c1s/c(=C\c3ccc[nH]3)c(=O)n12 (stereo unspecified) | 0.265 µM | > 100 µM
42 | CN(c1ccc(C#N)c(Cl)c1)C1CCC(NC(=O)c2ccc(N3CCN(C4CN(c5ccc6c(c5)C(=O)N(C5CCC(=O)NC5=O)C6=O)C4)CC3)cc2)CC1 (stereo unspecified) | 13.7 µM | 60 µM
43 | Brc1cccc(-c2cc(-c3ccc4nccnc4c3)[nH]n2)c1 | 0.9 µM | –
44 | COc1ccc(C2C(C#N)=C(/N=C/c3ccc(Cl)cc3)Oc3c2sc2c(C)cccc32)cc1 (stereo unspecified) | 1.09 µM | 9.34 µM
45 | N/C(=N\c1nc2ccccc2s1)NC(=NC1CCCCC1)NC1CCCCC1 | 1.7 µM | 3.41 µM
46 | O=C1CSC(c2ccccc2O)N1c1nnc(Cn2ccnc2)o1 (stereo unspecified) | 3.11 µM | 13.2 µM
